6 molecules from US12528814B2, “Bifunctional degraders of interleukin-1 receptor-associated kinases and therapeutic use thereof” (NURIX THERAPEUTICS, INC., priority 2020, dated 2026) can be followed below.

Entries after “also recorded” stand apart in the source; their conditions may differ.

What all share (type): cell-based
For one experiment, the target named is Aiolos (Homo sapiens (Human), UniProt Q96SW2+Q9UKT9). Briefly: Flow Cytometry-Based Assay for Aiolos Degradation. Conditions: 24 hours; for DC50: Jurkat cells (Clone E6-1); for Aiolos (CRBN neosubstrate) degradation, in words: Jurkat cells. The protocol:
(§1) Flow Cytometry-Based Assay for Aiolos and Ikaros Degradation
(§2) Jurkat cells (Clone E6-1) were treated with DMSO or compound for 24 hours and then fixed and permeabilized using a Foxp3/Transcription Factor Fixation/Permeabilization Kit (eBioscience, cat. no. 00-5523). Cells were stained with fluorophore-conjugated antibodies against Ikaros (Biolegend 368414) and Aiolos (Biolegend, cat. no. 371106). An additional set of DMSO-treated cells was stained with fluorophore-conjugated isotype control antibodies (Biolegend, cat. no. 400254 and 400136). Stained cells were run on an Attune N×T Acoustic Focusing Flow Cytometer (Thermo-Fisher, cat. no. A29004), and data was analyzed using FlowJo (v10.5.3) and GraphPad Prism (v7.00) software. Single cells were gated, and the geometric mean fluorescence intensities (MFIs) of Ikaros and Aiolos were calculated. The MFI of the isotype control was calculated for each analyte and used to quantify background staining. Percent Ikaros or Aiolos degradation was calculated for each compound-treated sample using the following equation: % Degradation=[…]

A further experiment addresses Ikaros (Homo sapiens (Human), UniProt Q13422+Q96SW2). Briefly: Flow Cytometry-Based Assay for Ikaros Degradation. To be noted: 24 hours; for DC50: Jurkat cells (Clone E6-1); for Ikaros (CRBN neosubstrate) degradation, in words: Jurkat cells. The procedure: as §1, §2
In general terms: In flow cytometry, cells or beads pass a laser one at a time.

Another experiment has as its target IRAK4 (Homo sapiens (Human), UniProt Q9NWZ3). The experiment in a line: Western Assay for IRAK4 Degradation. Conditions: wild-type Jurkat cells, 4 hrs; approximate. The procedure:
DMSO was stamped into wells A12-H12 at 500 nL/well (NC, Negative Control, maximum signal). […] Following incubation, plates were centrifuged for 5 min at 1600 rpm. […] Cells were lysed overnight at −20° C. Plates were centrifuged for 5 min at 1600 rpm and lysate supernatants were transferred to storage plates. […] Samples were separated by running gels at constant 200 V in NuPAGE MES SDS Running Buffer. Following electrophoresis, proteins were transferred to nitrocellulose membranes using an iBlot Gel Transfer Device and iBlot Gel Transfer Stacks (Thermo cat. no. IB21001 and IB301001) and transfer method PO (20V 1 min, 23V 4 min, 25V 2 min). Membranes were blocked for 1 hr in 5% milk solution (TBS (0.2% Tween-20)).
Following blocking, membranes were incubated with primary antibody overnight at 4° C. with gentle shaking. […] Blots were washed 3× in TBS (0.2% Tween-20), 5-10 min per wash. Following washes, blots were incubated in secondary HRP-conjugated antibody (Promega anti-Rabbit IgG (H+L) HRP, cat. no. W4011), 1:5000 in 5% milk solution (TBS (0.2% Tween-20)), for 1 hr at room temperature with gentle shaking. Blots were washed 3× in TBS (0.2% Tween-20), 5-10 min per wash. Blots were incubated with 1:1 mix of ECL reagents 1 & 2 (Amersham ECL Western Blotting Detection Reagent, cat. no. RPN2106) for 2-3 min at room temperature. Bands were visualized using a Protein Simple imager. […] The data was analyzed using Alpha View software. The densitometric reading for each sample band was normalized to that of the corresponding actin band per lane.

Ikaros, sequence (Q13422 whole entry): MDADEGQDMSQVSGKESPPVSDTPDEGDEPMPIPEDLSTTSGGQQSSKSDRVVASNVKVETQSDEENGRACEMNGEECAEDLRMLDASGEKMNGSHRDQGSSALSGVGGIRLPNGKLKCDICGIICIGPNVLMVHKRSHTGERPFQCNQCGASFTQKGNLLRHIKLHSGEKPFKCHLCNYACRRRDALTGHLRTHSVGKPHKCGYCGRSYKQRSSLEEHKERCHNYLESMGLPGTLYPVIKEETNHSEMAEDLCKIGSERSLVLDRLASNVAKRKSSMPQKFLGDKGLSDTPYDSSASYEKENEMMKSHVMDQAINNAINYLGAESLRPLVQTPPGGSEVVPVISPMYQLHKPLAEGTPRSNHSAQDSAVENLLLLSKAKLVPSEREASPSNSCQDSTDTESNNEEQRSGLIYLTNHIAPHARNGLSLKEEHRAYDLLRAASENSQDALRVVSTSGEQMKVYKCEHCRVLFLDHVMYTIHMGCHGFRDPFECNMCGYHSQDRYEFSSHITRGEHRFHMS
Ikaros, sequence (Q96SW2 whole entry): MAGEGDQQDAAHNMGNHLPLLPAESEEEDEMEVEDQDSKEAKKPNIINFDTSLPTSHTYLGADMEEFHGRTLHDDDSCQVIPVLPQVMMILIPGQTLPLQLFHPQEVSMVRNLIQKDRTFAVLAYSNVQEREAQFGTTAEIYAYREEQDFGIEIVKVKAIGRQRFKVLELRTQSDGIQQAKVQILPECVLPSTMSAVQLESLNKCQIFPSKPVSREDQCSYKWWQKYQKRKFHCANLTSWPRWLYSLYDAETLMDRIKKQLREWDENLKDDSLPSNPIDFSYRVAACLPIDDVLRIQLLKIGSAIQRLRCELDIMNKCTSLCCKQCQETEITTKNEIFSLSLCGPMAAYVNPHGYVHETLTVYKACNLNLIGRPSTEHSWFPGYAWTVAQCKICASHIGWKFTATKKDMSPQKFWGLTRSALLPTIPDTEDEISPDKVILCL
Ikaros, sequence (Q16531 whole entry partner): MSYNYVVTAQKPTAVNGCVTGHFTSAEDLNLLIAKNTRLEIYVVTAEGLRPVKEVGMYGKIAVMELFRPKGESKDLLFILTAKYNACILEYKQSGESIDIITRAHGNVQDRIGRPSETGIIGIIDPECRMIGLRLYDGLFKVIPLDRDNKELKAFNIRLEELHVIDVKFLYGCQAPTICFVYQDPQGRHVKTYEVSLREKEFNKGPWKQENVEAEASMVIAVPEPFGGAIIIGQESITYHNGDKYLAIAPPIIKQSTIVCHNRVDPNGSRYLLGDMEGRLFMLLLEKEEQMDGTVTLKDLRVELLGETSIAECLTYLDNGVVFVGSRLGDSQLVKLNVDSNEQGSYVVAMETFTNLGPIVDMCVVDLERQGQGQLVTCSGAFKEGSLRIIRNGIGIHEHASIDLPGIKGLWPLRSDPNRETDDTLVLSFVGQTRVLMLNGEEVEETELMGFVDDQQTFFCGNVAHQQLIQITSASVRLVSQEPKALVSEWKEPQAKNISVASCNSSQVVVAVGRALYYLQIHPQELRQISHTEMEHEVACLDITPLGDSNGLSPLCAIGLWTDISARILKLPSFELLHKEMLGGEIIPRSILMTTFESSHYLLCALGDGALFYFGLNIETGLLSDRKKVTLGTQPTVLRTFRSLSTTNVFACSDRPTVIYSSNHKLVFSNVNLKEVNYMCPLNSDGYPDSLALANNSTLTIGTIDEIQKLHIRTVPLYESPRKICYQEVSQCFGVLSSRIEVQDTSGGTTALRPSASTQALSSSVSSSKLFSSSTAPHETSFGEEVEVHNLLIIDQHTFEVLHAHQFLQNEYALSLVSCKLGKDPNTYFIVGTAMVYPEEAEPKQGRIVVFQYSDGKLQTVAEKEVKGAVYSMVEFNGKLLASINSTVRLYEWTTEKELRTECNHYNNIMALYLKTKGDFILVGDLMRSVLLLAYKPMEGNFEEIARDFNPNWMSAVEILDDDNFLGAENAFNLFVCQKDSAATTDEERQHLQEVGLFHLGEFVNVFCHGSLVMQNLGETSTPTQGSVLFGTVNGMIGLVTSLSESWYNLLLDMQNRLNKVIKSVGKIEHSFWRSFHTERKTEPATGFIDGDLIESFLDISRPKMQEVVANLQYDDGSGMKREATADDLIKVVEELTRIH
Aiolos, sequence (Q9UKT9 whole entry): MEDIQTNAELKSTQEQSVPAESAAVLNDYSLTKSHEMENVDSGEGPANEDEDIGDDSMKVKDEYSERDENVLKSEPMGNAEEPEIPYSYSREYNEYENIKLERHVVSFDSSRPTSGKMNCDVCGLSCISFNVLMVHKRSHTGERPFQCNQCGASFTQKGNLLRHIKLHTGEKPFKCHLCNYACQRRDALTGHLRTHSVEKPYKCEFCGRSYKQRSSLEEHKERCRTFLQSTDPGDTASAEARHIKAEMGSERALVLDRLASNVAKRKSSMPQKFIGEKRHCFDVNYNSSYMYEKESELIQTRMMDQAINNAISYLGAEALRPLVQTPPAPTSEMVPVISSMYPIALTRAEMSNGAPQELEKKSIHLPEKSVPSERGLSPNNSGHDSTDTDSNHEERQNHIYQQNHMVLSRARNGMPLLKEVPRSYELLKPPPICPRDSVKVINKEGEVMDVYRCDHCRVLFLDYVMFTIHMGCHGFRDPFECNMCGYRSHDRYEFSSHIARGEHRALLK
Aiolos, sequence (Q96SW2 whole entry): as the sequence (Q96SW2 whole entry) above
Aiolos, sequence (Q16531 whole entry partner): as the sequence (Q16531 whole entry partner) above
IRAK4, sequence (Q9NWZ3 whole entry): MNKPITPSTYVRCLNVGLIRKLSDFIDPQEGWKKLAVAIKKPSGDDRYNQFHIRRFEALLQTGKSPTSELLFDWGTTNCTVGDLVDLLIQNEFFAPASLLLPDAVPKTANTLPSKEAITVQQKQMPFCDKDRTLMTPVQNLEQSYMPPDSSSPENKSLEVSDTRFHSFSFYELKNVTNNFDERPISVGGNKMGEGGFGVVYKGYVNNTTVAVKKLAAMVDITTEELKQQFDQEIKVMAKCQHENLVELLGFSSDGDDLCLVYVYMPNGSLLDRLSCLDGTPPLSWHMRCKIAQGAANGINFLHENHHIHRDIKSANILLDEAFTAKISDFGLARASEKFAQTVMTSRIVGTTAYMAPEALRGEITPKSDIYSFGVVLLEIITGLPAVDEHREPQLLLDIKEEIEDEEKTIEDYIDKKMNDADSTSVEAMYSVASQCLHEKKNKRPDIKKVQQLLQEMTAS

The term DC50 denotes the concentration giving 50% degradation. A lower DC50 goes with a more potent degrader. A word on the Dmax: it is the greatest extent of degradation seen. With `NC(=O)c1nn(-c2ccc(C(=O)NCCOCCOCCNc3cccc4c3C(=O)N(C3CCC(=O)NC3=O)C4=O)cc2)cc1NC(=O)c1coc(-c2ccnc(NCC(F)(F)F)c2)n1` (stereo not shown) [Comparative Compound a2, reference compound], on Aiolos, the DC50 came out at 20 nM; the “Aiolos (CRBN neosubstrate) degradation, in words” value (“Aiolos” for short) is “induced neosubstrate degradation; also recorded: degraded both Ikaros and Aiolos”. Moreover, at Ikaros, the DC50 was determined as 20 nM; the “Ikaros (CRBN neosubstrate) degradation, in words” value (“Ikaros” for short) is “induced neosubstrate degradation; also recorded: degraded both Ikaros and Aiolos”. For the same molecule, on IRAK4, half-maximal degradation (DC50) was put at 1 nM and the Dmax was 54%.

On to `CC[C@@H]1[C@H](F)C(=O)N[C@@H]1COc1ncc(C#CCN2CCC3(CC2)CCN(c2ncc(C(=O)N[C@H](C(=O)N4C[C@H](O)C[C@H]4C(=O)NCc4ccc(-c5scnc5C)cc4)C(C)(C)C)cn2)CC3)c2cc(C(N)=O)c(OC)cc12` [Comparative b1, reference compound], for which the values for the DC50 on Aiolos, on Ikaros and at IRAK4 were above 5000 nM, above 5000 nM and 70 nM, respectively. This molecule also gave a Dmax on IRAK4 of 86%.

As to `CC(C)Nc1cc(-c2ccc3cc(C#N)cnn23)ncc1-c1nnc(N2CCN(C(=O)C3CCN(Cc4ccc5c(c4)C(=O)N(C4CCC(=O)NC4=O)C5=O)CC3)CC2)s1` (stereo not shown) [Example 13, 7-(5-(5-(4-(1-((2-(2,6-dioxopiperidin-3-yl)-1,3-dioxoisoindolin-5-yl)methyl)piperidine-4-carbonyl)piperazin-1-yl)-1,3,4-thiadiazol-2-yl)-4-(isopropylamino)pyridin-2-yl)pyrrolo[1,2-b]pyridazine-3-carbonitrile], on Aiolos, the half-maximal degradation concentration (DC50) is above 5000 nM; the “Aiolos” value is “none of Compounds 13, 24, 47, and 35 displayed neosubstrate degradation”. On Ikaros, the DC50 is above 5000 nM; the “Ikaros” value was “none of Compounds 13, 24, 47, and 35 displayed neosubstrate degradation”. At IRAK4, this molecule came in with a DC50 of 14 nM and a Dmax of 87%.

On to `CC(C)Nc1cc(-c2ccc3cc(C#N)cnn23)ncc1-c1nnc(N2CCN(C(=O)C3CCN(CC4CCN(c5ccc(-c6nn(C7CCC(=O)NC7=O)c(=O)n6C)cc5)CC4)CC3)CC2)s1` (stereo not shown) [Example 24, 7-(5-(5-(4-(1-((1-(4-(1-(2,6-dioxopiperidin-3-yl)-4-methyl-5-oxo-4,5-dihydro-1H-1,2,4-triazol-3-yl)phenyl)piperidin-4-yl)methyl)piperidine-4-carbonyl)piperazin-1-yl)-1,3,4-thiadiazol-2-yl)-4-(isopropylamino)pyridin-2-yl)pyrrolo[1,2-b]pyridazine-3-carbonitrile], for which, on Aiolos, the DC50 is above 5000 nM; the “Aiolos” value is “none of Compounds 13, 24, 47, and 35 displayed neosubstrate degradation”. In addition, at Ikaros, the DC50 was above 5000 nM; the “Ikaros” value is “none of Compounds 13, 24, 47, and 35 displayed neosubstrate degradation”. On IRAK4, this molecule gave a 50% degradation concentration (DC50) of 200 nM and a Dmax of 90%.

Turning to `Cc1ncsc1-c1ccc(CNC(=O)[C@@H]2C[C@@H](O)CN2C(=O)[C@@H](NC(=O)CCCC(=O)N2CCN(c3nnc(-c4cnc(-c5ccc6cc(C#N)cnn56)cc4NC(C)C)s3)CC2)C(C)(C)C)cc1` [Example 35, (2S,4R)-1-((S)-2-(5-(4-(5-(6-(3-cyanopyrrolo[1,2-b]pyridazin-7-yl)-4-(isopropylamino)pyridin-3-yl)-1,3,4-thiadiazol-2-yl)piperazin-1-yl)-5-oxopentanamido)-3,3-dimethylbutanoyl)-4-hydroxy-N-(4-(4-methylthiazol-5-yl)benzyl)pyrrolidine-2-carboxamide], at Aiolos, the DC50 is above 5000 nM; the “Aiolos” value is “none of Compounds 13, 24, 47, and 35 displayed neosubstrate degradation”. Besides, on Ikaros, the DC50 was above 5000 nM; the “Ikaros” value was “none of Compounds 13, 24, 47, and 35 displayed neosubstrate degradation”. In addition, at IRAK4, half-maximal degradation (DC50) was put at 200 nM and the Dmax was 86%.

`Cc1ncsc1-c1ccc(CNC(=O)[C@@H]2C[C@@H](O)CN2C(=O)[C@@H](NC(=O)C2(F)CC2)C(C)(C)C)c(OCCOCCC(=O)N2CCN(c3nnc(-c4cnc(-c5ccc6cc(C#N)cnn56)cc4NC(C)C)s3)CC2)c1` [Example 47, (2S,4R)—N-(2-(2-(3-(4-(5-(6-(3-cyanopyrrolo[1,2-b]pyridazin-7-yl)-4-(isopropylamino)pyridin-3-yl)-1,3,4-thiadiazol-2-yl)piperazin-1-yl)-3-oxopropoxy)ethoxy)-4-(4-methylthiazol-5-yl)benzyl)-1-((S)-2-(1-fluorocyclopropane-1-carboxamido)-3,3-dimethylbutanoyl)-4-hydroxypyrrolidine-2-carboxamide]: on Aiolos, the half-maximal degradation concentration (DC50) was above 5000 nM; the “Aiolos” value was “none of Compounds 13, 24, 47, and 35 displayed neosubstrate degradation”. At Ikaros, the DC50 was above 5000 nM; the “Ikaros” value is “none of Compounds 13, 24, 47, and 35 displayed neosubstrate degradation”. At IRAK4, this molecule showed a DC50 of 89 nM and a Dmax of 99%.
